Assay results as given in patent US9631001B2, “Peptide antagonists of the vasopressin-2 receptor” (COMMISSARIAT A L'ENERGIE ATOMIQUE ET AUX ENERGIES …, priority 2012, dated 2017).

How the values were obtained:
V1aR = V1aR (Homo sapiens, UniProt P37288); assay: 3H-AVP competition binding on V1aR membranes; conditions: toxin at 1 μM
Procedure: (§1) Membranes from cells expressing vasopressin receptors were purchased from […] (Courtaboeuf, France). Binding experiments were performed with ^3H-AVP ([…], Courtaboeuf, France) in 96-well plates. Reaction mixtures contained 50 mM Tris-HCl, pH 7.4, 10 mM MgCl2 and 1 g/L BSA in a final volume of 100 μL. Plates were incubated for 3 h at room temperature. Binding reactions were stopped by filtration through a GF/C filter pre-soaked in 0.5% polyethyleneimine on a cell harvester ([…], Courtaboeuf, France) and plates were dried. Ultimagold O (25 μl; […]) was added to each well and samples were counted using a TopCount counter ([…], Courtaboeuf, France) (Counting yield of 55%). […] A one-site inhibition mass action curve was fitted to inhibition binding data using Kaleidagraph (SYNERGY SOFTWARE, Reading, Pa., USA). IC50 values were converted to Ki for competition experiments using the Cheng-Prusoff equation (Cheng et al., Biochem. Pharmacol., 1973, 22, 3099-3108).

V2R = V2R (Homo sapiens, UniProt P30518); assay: AVP-induced MAP kinase phosphorylation (HTRF) in tsA cells expressing V2R; assay type: cell-based; set-up: expressed in transfected cells
Procedure: Eight hours and twenty-four hours later, the cells were starved with serum-free medium and stimulated another twenty-seven hours later. […] In a 384 well plate, to 16 μl of lysed cells first 2 μl of the antibody against phosphorylated ERK labeled with acceptor fluorophore (AC-ERK-P-d2 emitting at 665 nm) and then 2 μl of the antibody against total ERK labeled with donor fluorophore (AC-ERK-K emiting at 620 nm) were added. When ERK phosphorylation occurs, the acceptor in close vicinity of the donor is able to emit at 665 nm producing the FRET signal. The increase in the 665/620 ratio corresponds to the increase in MAP kinase phosphorylation. Two hours later, RT-FRET was measured on a laser-based HTRF® reader Rubystar with Rubystar software (BMG LABTECH).

V1bR = target: T1, V1bR (Homo sapiens, UniProt P47901); assay: 3H-AVP competition binding on V1bR membranes; conditions: toxin at 1 μM
T1 sequence (P47901 1-424): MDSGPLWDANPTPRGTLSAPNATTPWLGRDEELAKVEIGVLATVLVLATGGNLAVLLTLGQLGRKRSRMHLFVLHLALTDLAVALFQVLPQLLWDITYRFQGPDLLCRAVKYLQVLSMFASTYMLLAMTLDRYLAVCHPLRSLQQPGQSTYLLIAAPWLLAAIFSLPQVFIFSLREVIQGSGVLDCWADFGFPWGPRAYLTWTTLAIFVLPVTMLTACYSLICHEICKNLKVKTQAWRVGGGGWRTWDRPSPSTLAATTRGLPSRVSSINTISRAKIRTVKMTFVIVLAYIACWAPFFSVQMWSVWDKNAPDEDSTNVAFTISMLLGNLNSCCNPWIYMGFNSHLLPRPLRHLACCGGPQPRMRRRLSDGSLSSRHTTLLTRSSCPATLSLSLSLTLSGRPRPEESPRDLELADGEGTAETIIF
Procedure: as §1

V2R, sequence (P30518 whole entry): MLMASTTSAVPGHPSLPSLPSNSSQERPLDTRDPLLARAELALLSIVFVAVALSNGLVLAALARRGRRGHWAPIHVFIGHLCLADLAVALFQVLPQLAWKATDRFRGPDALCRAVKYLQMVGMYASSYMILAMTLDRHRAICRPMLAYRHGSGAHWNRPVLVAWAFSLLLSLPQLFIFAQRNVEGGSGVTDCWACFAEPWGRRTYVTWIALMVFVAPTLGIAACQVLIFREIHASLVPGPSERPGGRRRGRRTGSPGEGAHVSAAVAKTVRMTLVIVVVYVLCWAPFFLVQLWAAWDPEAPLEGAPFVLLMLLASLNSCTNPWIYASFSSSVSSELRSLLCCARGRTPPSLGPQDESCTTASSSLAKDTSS
V1aR, sequence (P37288 whole entry): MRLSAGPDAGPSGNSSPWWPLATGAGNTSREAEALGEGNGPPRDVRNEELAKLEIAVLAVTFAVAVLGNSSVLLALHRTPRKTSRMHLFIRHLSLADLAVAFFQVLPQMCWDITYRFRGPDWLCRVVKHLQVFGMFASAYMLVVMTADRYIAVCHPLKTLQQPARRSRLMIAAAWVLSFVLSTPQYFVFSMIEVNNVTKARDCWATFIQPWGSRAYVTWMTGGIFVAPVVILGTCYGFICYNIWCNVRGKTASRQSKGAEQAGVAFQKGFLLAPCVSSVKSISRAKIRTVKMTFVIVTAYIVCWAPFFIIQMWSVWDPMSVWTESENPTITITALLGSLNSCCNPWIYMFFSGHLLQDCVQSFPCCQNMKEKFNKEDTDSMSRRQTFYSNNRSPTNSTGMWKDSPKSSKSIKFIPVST

## CC[C@H](C)[C@@H]1NC(=O)[C@H]([C@@H](C)O)NC(=O)[C@H](CO)NC(=O)[C@H](Cc2ccccc2)NC(=O)[C@H](CCCNC(=N)N)NC(=O)[C@H](CC(N)=O)NC(=O)[C@H](C)NC(=O)[C@H](CC(N)=O)NC(=O)CNC(=O)[C@H](CCCCN)NC(=O)[C@@H]2CSSC[C@@H]3NC(=O)[C@@H]4CCCN4C(=O)CNC(=O)[C@@H]4CCCN4C(=O)[C@H](CCCCN)NC(=O)[C@H](C(C)C)NC(=O)[C@@H]4CCCN4C(=O)[C@H](CC(C)C)NC(=O)[C@H](CC(N)=O)NC(=O)[C@@H](NC(=O)[C@H](Cc4ccccc4)NC(=O)[C@H](CO)NC(=O)[C@@H]4CCCN4C(=O)[C@@H](N)CCCNC(=N)N)CSSC[C@@H](C(=O)N[C@H](C(=O)NCC(=O)O)C(C)C)NC(=O)[C@H]([C@@H](C)O)NC(=O)[C@H](CCCNC(=N)N)NC(=O)[C@H](CCCNC(=N)N)NC(=O)[C@H](CSSC[C@H](NC(=O)[C@H](CCCCN)NC(=O)[C@H](CC(N)=O)NC(=O)[C@H]([C@@H](C)O)NC(=O)[C@H](CCCCN)NC(=O)[C@H](CCC(N)=O)NC(=O)[C@H](CO)NC(=O)[C@H](Cc4ccc(O)cc4)NC(=O)[C@H](Cc4ccc(O)cc4)NC(=O)[C@H](Cc4ccccc4)NC(=O)[C@H](C)NC(=O)[C@H](CO)NC(=O)[C@H](Cc4ccccc4)NC(=O)[C@H](Cc4ccccc4)NC(=O)CNC(=O)[C@H](CC(N)=O)NC3=O)C(=O)N[C@@H](Cc3c[nH]cn3)C(=O)N[C@@H](CO)C(=O)N[C@@H](Cc3ccccc3)C(=O)N[C@@H]([C@@H](C)O)C(=O)N[C@@H](Cc3ccc(O)cc3)C(=O)NCC(=O)NCC(=O)N2)NC(=O)[C@H](CCCCN)NC(=O)[C@H](CCC(=O)O)NC1=O [U-Da2a]
V1aR
  inhibition of 3H-AVP binding to V1aR: did not inhibit
V2R
  Kb: 126 nM
V1bR
  inhibition of 3H-AVP binding to V1bR: did not inhibit
